Assay in all cases: DTP human tumour cell line panel, 48 h
In experiment [1] the test system is 786-0.
Experiment [2] concerns ACHN.
For experiment [3], the system named is COLO 205.
Experiment [4] concerns HCC 2998.
For experiment [5], the system named is HL-60.
Experiment [6] has as its system HOP-92.
In experiment [7] the test system is M14.
Experiment [8] deals with MCF7.
Experiment [9] deals with MDA-MB-435.
Experiment [10] deals with NCI-H23.
Experiment [11] has as its system SF-268.
Experiment [12] relates to SF-295.
Experiment [13] deals with SK-MEL-28.
The subject of experiment [14] is SK-MEL-2.
The test system of experiment [15] is SK-MEL-5.
In experiment [16] the test system is SK-OV-3.
In experiment [17] the test system is SN12C.
In experiment [18] the test system is SR.
For experiment [19], the system named is T47D.
The subject of experiment [20] is UO-31.

SMILES strings stand for the structures.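 Interpolation was linear, between the two tested concentrations surrounding the appropriate level; five concentrations were tested over 48 hours in 96-well plates. The concentration for 50% growth inhibition is given as GI50.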 Activity calls are given as the source filed them. Cut-off read from the data, not from the text of the source: active = GI50 up to about 1.1 µM and inactive = higher. Some results are limits rather than exact numbers.

Turning to `CCOC(=O)/C(=C\NC(=S)Nc1ccc(OCC)cc1)C(=O)c1ccccc1`, the GI50 was > 100 µM (inactive) in experiment [1]; > 100 µM (inactive) in experiment [2]; > 100 µM (inactive) in experiment [3]; > 100 µM (inactive) in experiment [4]; > 100 µM (inactive) in experiment [5]; 8.26 µM (inactive) in [6]. The GI50 in [7], in experiment [8], in [9], in experiment [10], in [11] and in experiment [12] was > 100 µM (inactive) in each case. In addition, the GI50 in experiment [13], in experiment [14], in [15], in experiment [16], in [17] and in experiment [18] was > 100 µM (inactive) each time. In experiment [19], the GI50 was 24 µM (inactive).
With `CC(=O)N1N=C(c2c(O)ccc3ccccc23)CC1c1ccc(Cl)cc1` (stereo not drawn), the GI50 is 27.1 µM (inactive) in experiment [1]; 25.5 µM (inactive) in [2]; 19.9 µM (inactive) in [3]; 17.7 µM (inactive) in [4]; 10.9 µM (inactive) in [6]; 14.2 µM (inactive) in experiment [7]. Besides, the GI50 is 15.5 µM (inactive) in experiment [8]; 22.4 µM (inactive) in experiment [9]; 15.1 µM (inactive) in [10]; 26.3 µM (inactive) in experiment [11]; 19.9 µM (inactive) in experiment [12]; 27.4 µM (inactive) in [13]. Further, the GI50 in experiment [14] is 17.5 µM (inactive); in [15], 21 µM (inactive); in [16], 28.4 µM (inactive); in experiment [17], 18.7 µM (inactive); in [18], 6.35 µM (inactive); in [19], 37.5 µM (inactive). For the same molecule, the GI50 in experiment [20] is 19.8 µM (inactive).
Consider `C/C(=N\NC(=S)N1CCCCCC1)c1cccc2cccnc12`, for which the GI50 in [1] is 2.01 µM (inactive); in [2], 0.375 µM (active); in experiment [3], 0.459 µM (active); in [4], 2.76 µM (inactive); in experiment [5] it was 1.25 µM (inactive); in [6], 11.7 µM (inactive). For the same molecule, the GI50 in [7] is 1.55 µM (inactive); in experiment [8] it was 0.984 µM (active); in experiment [9], 1.71 µM (inactive); in experiment [10], 1.32 µM (inactive); in experiment [11], 4.29 µM (inactive); in experiment [12] it was 0.271 µM (active). The GI50 in experiment [13] is 1.77 µM (inactive); in [14], 19.5 µM (inactive); in [16], 3.77 µM (inactive); in experiment [18], < 0.01 µM (active); in experiment [19], 0.966 µM (active); in experiment [20] it was 1.94 µM (inactive).
For `N#Cc1ccc(C(O)C(F)(F)c2nc3ccccc3o2)cc1` (stereo not drawn), the GI50 in [1] is 84.1 µM (inactive); in [2] it was 83.9 µM (inactive); in experiment [3] it was > 100 µM (inactive); in experiment [4] it was > 100 µM (inactive); in [5] it was 43.6 µM (inactive); in experiment [6], 53.3 µM (inactive). In addition, the GI50 was 55.2 µM (inactive) in experiment [7]; 46.1 µM (inactive) in experiment [8]; 44.8 µM (inactive) in experiment [9]; > 100 µM (inactive) in [10]; > 100 µM (inactive) in experiment [11]; 41.8 µM (inactive) in [12]. For the same molecule, the GI50 was > 100 µM (inactive) in experiment [13]; > 100 µM (inactive) in experiment [14]; 37.2 µM (inactive) in [15]; > 100 µM (inactive) in [16]; 86.9 µM (inactive) in experiment [18]; 37.2 µM (inactive) in experiment [19]. The GI50 in experiment [20] is 30.3 µM (inactive).
As to `O=C1C(Cl)C2(CC(/C=C/c3ccccc3O)=NN2c2cccc(S(=O)(=O)O)c2)N1c1nc2ccccc2s1` (stereo not drawn), the GI50 in [1] was 15.6 µM (inactive); in experiment [2] it was 20.2 µM (inactive); in experiment [3] it was 18.9 µM (inactive); in experiment [4], 14.5 µM (inactive); in experiment [5], 3.54 µM (inactive); in experiment [6], 19.7 µM (inactive). The GI50 in experiment [7] was 18.3 µM (inactive); in experiment [8], 15.4 µM (inactive); in experiment [9], 15.1 µM (inactive); in experiment [10] it was 15.6 µM (inactive); in [11] it was 16 µM (inactive); in experiment [13], 24.2 µM (inactive). The GI50 is 16.8 µM (inactive) in experiment [14]; 12.1 µM (inactive) in experiment [15]; 14.2 µM (inactive) in experiment [17]; 15.3 µM (inactive) in [18]; 17.4 µM (inactive) in [19]; 13.1 µM (inactive) in experiment [20].
As for `CN(C)c1n/c(=N/Cc2ccccn2)ss1`, the GI50 in experiment [1] was > 4.16 µM (inactive); in experiment [2] it was > 10 µM (inactive); in experiment [3], > 10 µM (inactive); in [4], > 10 µM (inactive); in [5], 2.18 µM (inactive); in experiment [6], > 10 µM (inactive). Further, the GI50 in [7] is > 8.89 µM (inactive); in experiment [8], 0.409 µM (active); in [9], > 10 µM (inactive); in experiment [10] it was > 10 µM (inactive); in experiment [11] it was > 10 µM (inactive); in experiment [12], > 10 µM (inactive). Also, the GI50 in experiment [13] was > 10 µM (inactive); in [15] it was > 10 µM (inactive); in experiment [16], > 10 µM (inactive); in experiment [17], 9.77 µM (inactive); in experiment [18], 1.93 µM (inactive); in experiment [19], > 10 µM (inactive). For the same molecule, the GI50 in experiment [20] was > 10 µM (inactive).
Consider `COC(=O)C(=O)C(C(=O)C(=O)Nc1ccccc1OC)c1nc2ccc([N+](=O)[O-])cc2nc1O` (stereo not drawn), for which the GI50 in experiment [1], in experiment [2], in [4], in experiment [5], in [6] and in [7] was > 100 µM (inactive) each time. The GI50 was > 100 µM (inactive) in experiment [8]; 35.6 µM (inactive) in [9]; > 100 µM (inactive) in experiment [11]; > 100 µM (inactive) in [12]; > 100 µM (inactive) in [13]; > 100 µM (inactive) in experiment [14]. The GI50 in [15] was > 100 µM (inactive); in experiment [16] it was > 100 µM (inactive); in experiment [17], > 100 µM (inactive); in experiment [18] it was > 100 µM (inactive); in [19] it was > 100 µM (inactive); in experiment [20], 45.3 µM (inactive).
Consider `CN(C)Cc1cc(C(=O)/C=C/c2ccccc2)cc(CN(C)C)c1O`, for which the GI50 in experiment [1] is 30.1 µM (inactive); in [2], 15.8 µM (inactive); in experiment [3], 17.8 µM (inactive); in experiment [4], 21.3 µM (inactive); in experiment [5], 15.5 µM (inactive); in [6], 26.7 µM (inactive). Moreover, the GI50 is 20.7 µM (inactive) in experiment [7]; 30.8 µM (inactive) in experiment [8]; 31.6 µM (inactive) in experiment [9]; 28.1 µM (inactive) in experiment [10]; 32.5 µM (inactive) in experiment [11]; 15.5 µM (inactive) in experiment [12]. For the same molecule, the GI50 in experiment [13] is 20.6 µM (inactive); in [15], 16.6 µM (inactive); in [17], 11.7 µM (inactive); in experiment [18] it was 19.7 µM (inactive); in experiment [19], 30.8 µM (inactive); in [20], 17.5 µM (inactive).

The term GI50 denotes the concentration that inhibits growth by half.

The record behind these values is ChEMBL document CHEMBL1201862, “PubChem BioAssay data set” (2004).
